Read-outs that look alike come from different tables or passages of the source.
Tests used:
[1] = tested on: serotonin and dopamine levels in the cortex; assay: Microdialysis of serotonin and dopamine in cortex; type: in vivo; conditions: cortex of freely moving rats, 1 mg/kg subcutaneous, FIG. 1
Excerpt: Microdialysis is used to measure the concentration of small biological molecules in the extracellular fluid of the brain (Parent, M. et al. Methods 2001, 23, 11-20). A small probe, containing a fine microdialysis membrane at its tip, is introduced into the brain of an animal. A buffered solution is infused through the catheter. Small molecules, such as monoamine neurotransmitters, diffuse through the pores in the microdialysis membrane and are captured in the solution. The samples are then analyzed by analytical techniques to quantitate the amount of neurotransmitter in the brain extracellular fluid. This technique has been used extensively to measure the effects of SERT inhibitors on levels of extracellular serotonin.
Microdialysis was used to measure the levels of serotonin and dopamine in the brain of freely moving rats after subcutaneous injection of Example 8A. […] Results are represented as the average ±s.d. of n=2-4 rats.

[2] = tested on: synaptic reuptake of 5-HT; assay: 5-HTP potentiation test (head twitches); type: in vivo; conditions: mice, 5 min interval, carbidopa 10 mg/kg + 5-HTP 40 mg/kg, average ± s.e.m.
H3 receptor = conditions: 60 min, average ± s.e.m.
Excerpt: In this model, animals were introduced into a cage containing a fully-automated water drinking monitoring system. […] Results are shown as averages ±s.e.m. of n=8-13 animals.

[3] = target: T1, human SERT (HEK293 membranes) (Homo sapiens, UniProt P31645); assay: Human SERT binding (3H-citalopram displacement)
T1 construct: purchased Perkin-Elmer; host or cells: HEK293 membranes
Method: Nonspecific binding was determined in the presence of 10 μM fluoxetine for the SERT. The membranes were washed and the radioactivity was counted as above.

[4] = target: T2, human H3 receptor (SK-N-MC cells) (Homo sapiens, UniProt Q9Y5N1); assay: Cyclic AMP accumulation (β-galactosidase reporter, Schild analysis vs histamine); type: cell-based; conditions: read-out: H3 pA2 (converted)
T2 construct: expressed in transfected cells; host or cells: SK-N-MC sublines with CRE-beta-galactosidase reporter
Method: The reporter gene (β-galactosidase) is under the control of multiple cyclic AMP responsive elements. In 96-well plates, histamine was added directly to the cell media followed 5 min later by an addition of forskolin (5 μM final concentration). When appropriate, antagonists were added 10 min prior to agonist addition. After a 6-h incubation at 37° C., the media was aspirated and the cells washed with 200 μL of phosphate-buffered saline followed by a second aspiration. Cells were lysed with 25 μL 0.1× assay buffer (10 mM Na-phosphate, pH 8, 0.2 mM MgSO4, 0.01 mM MnCl2) and incubated at rt for 10 min. Cells were then incubated for 10 min with 100 μL of 1× assay buffer containing 0.5% Triton and 40 mM β-mercaptoethanol. Color was developed using 25 μL of 1 mg/mL substrate solution (chlorophenolred β-D galactopyranoside; Roche Molecular Biochemicals, Indianapolis, Ind.).

[5] = target: T3, cloned human H3 receptor, stably expressed in SK-N-MC cells (Homo sapiens, UniProt Q9Y5N1); assay: H3 receptor binding (N-[3H]-α-methylhistamine displacement); conditions: SK-N-MC membranes, 0.8 nM N-[3H]-α-methylhistamine
T3 construct: expressed in transfected cells

Rat SERT = target: T4, Rat SERT (Rattus norvegicus, UniProt P31652); assay: Rat brain SERT binding ([3H]-Citalopram displacement); conditions: rat brain membranes, 0.6 nM [3H]-Citalopram; read-out: Rat SERT Ki
T4 construct: A rat brain without cerebellum (Zivic Laboratories, Inc.—Pittsburgh, Pa.) was homogenized; tissue Zivic Laboratories, Inc; host or cells: rat brain without cerebellum, membranes
T4 sequence (P31652 whole entry): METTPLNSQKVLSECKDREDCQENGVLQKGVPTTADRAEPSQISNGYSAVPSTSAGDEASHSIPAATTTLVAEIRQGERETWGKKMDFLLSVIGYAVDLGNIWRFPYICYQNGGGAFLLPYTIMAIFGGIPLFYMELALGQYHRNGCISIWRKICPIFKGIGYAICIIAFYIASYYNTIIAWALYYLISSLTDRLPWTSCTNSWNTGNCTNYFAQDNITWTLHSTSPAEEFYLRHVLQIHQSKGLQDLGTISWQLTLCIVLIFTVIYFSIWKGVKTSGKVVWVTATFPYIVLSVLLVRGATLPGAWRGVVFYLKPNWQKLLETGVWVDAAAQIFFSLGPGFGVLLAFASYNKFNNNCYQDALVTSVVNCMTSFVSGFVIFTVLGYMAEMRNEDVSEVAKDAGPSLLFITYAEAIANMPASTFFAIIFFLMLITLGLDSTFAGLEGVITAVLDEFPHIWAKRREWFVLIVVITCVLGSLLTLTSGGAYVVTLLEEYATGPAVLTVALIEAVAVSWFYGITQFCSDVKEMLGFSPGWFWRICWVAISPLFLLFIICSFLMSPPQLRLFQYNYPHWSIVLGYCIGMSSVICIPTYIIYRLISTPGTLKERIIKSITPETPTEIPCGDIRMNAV

T1 sequence (P31645 whole entry): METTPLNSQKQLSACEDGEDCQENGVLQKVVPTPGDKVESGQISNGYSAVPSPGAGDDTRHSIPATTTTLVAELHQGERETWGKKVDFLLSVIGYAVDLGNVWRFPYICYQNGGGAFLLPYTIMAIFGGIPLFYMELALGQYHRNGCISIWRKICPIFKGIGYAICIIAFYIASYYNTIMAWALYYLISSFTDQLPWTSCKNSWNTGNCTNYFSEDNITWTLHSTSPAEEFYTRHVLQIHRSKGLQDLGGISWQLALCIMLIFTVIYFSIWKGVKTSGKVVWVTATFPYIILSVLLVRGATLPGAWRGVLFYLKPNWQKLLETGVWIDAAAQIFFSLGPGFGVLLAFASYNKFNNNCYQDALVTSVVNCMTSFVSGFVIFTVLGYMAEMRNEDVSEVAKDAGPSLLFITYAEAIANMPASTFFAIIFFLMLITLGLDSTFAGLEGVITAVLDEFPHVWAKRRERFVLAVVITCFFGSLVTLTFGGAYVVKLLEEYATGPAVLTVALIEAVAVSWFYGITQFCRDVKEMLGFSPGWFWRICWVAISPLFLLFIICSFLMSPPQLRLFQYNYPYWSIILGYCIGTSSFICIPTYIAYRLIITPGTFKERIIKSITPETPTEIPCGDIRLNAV
T2 sequence (Q9Y5N1 whole entry): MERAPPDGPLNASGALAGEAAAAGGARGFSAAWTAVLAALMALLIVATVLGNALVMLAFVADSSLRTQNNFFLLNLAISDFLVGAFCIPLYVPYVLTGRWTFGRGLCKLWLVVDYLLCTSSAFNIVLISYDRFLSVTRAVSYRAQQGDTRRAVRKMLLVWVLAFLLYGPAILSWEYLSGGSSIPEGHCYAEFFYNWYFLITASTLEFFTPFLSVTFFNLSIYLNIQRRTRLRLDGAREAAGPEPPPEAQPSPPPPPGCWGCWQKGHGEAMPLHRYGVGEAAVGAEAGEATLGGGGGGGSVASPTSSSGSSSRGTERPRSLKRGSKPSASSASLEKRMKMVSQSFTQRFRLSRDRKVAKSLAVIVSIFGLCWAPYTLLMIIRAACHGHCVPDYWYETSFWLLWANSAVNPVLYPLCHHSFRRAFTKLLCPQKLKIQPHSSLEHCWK
T3 sequence (Q9Y5N1 whole entry): as above

Row | SMILES | dopamine (DA) levels by microdialysis [1] | serotonin (5-HT) levels by microdialysis [1] | head twitch frequency ([2]; 3 mg/kg, Group 1 (1 h)) | head twitch frequency ([2]; 3 mg/kg, Group 2 (24 h)) | head twitch frequency ([2]; 10 mg/kg, Group 1 (1 h)) | head twitch frequency ([2]; 10 mg/kg, Group 2 (24 h)) | Water Consumed (H3 receptor; Example 8A (1 mg/kg) i.p. + Imetit (1 mg/kg) after 24 h) | Water Consumed (H3 receptor; Example 8A (3 mg/kg) i.p. + Imetit (1 mg/kg) after 24 h) | Water Consumed (H3 receptor; Example 8A (10 mg/kg) i.p. + Imetit (1 mg/kg) after 24 h, p = 0.022 compared to imetit-treated animals) | Ki [3] | Kb [4] | Ki [5] | Ki (Rat SERT)
1 | COc1ccc([C@H]2CN3CCC[C@H]3c3cc(OCCCN4CCCCC4)ccc32)cc1 (relative stereo) [Example 8A, Cis-6-(4-Methoxy-phenyl)-9-(3-piperidin-1-yl-propoxy)-1,2,3,5,6,10b-hexahydro-pyrrolo[2,1-a]isoquinoline] | slow, persistent increase | slow, persistent increase | 6.0 ± 1.2 (3) | 24.0 ± 2.1 (4) | 2.0 ± 0.6 (3) | 41.3 ± 5.2 (3) | 1.99 ± 0.68 mL | 1.65 ± 0.51 mL | *0.25 ± 0.15 mL |  |  |  | 
2 | Oc1ccc([C@H]2CN3CCC[C@H]3c3cc(OCCCN4CCCCC4)ccc32)cc1 (relative stereo) [Example 9A] |  |  |  |  |  |  |  |  |  | 58 nM | 0.316 nM | 2 nM | 9 nM
3 | COc1ccc([C@@H]2CN3CCC[C@@H]3c3cc(OCCCN4CCOCC4)ccc32)cc1 [Example 92, (1R,6S)-6-(4-Methoxy-phenyl)-9-(3-morpholin-4-yl-propoxy)-1,2,3,5,6,10b-hexahydro-pyrrolo[2,1-a]isoquinoline] |  |  |  |  |  |  |  |  |  | 4 nM | 15.8 nM | 16 nM | 2.2 nM
4 | Clc1cccc([C@@H]2CN3CCC[C@H]3c3cc(OCCCN4CCCCC4)ccc32)c1 (relative stereo) [Example 11A, Cis-6-(3-Chloro-phenyl)-9-(3-piperidin-1-yl-propoxy)-1,2,3,5,6,10b-hexahydro-pyrrolo[2,1-a]isoquinoline] |  |  |  |  |  |  |  |  |  | 0.6 nM | 0.316 nM | 1 nM | 4 nM
